The record followed here is patent publication US10703765B2 (priority 2014, dated 2020).

Counter-ions that a name gives are not always drawn. Bounds are passed on as bounds.

The target of one experiment is human σ1 receptor (Homo sapiens, UniProt Q99720). Briefly: biochemical. Format: binding.
human σ1 receptor, sequence (Q99720 whole entry): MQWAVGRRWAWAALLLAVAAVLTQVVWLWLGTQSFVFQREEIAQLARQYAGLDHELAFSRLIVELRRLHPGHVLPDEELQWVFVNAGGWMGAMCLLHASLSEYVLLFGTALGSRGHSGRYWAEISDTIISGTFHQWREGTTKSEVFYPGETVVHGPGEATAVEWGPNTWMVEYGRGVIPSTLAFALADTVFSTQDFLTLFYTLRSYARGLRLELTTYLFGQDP
Conditions: not given
Also on record: μ and σ1 dual binding: key to the marks not given beside the values.
Take `CC1OC2(CCN(CCC3CCOCC3)CC2)CN(c2ccccc2)C1=O.Cl` (stereo not shown) [Example 131, 2-methyl-4-phenyl-9-(2-(tetrahydro-2H-pyran-4-yl)ethyl)-1-oxa-4,9-dizaspiro[5.5]undecan-3-one hydrochloride]: the “μ and σ1 dual binding” value is recorded as “++”. Regarding `O=C1C(=CC2CCOCC2)OC2(CCN(CCc3ccccc3)CC2)CN1c1ccccc1F` [Example 80, 4-(2-fluorophenyl)-9-phenethyl-2-((tetrahydro-2H-pyran-4-yl)methylene)-1-oxa-4,9-diazaspiro[5.5]undecan-3-one], the Ki is below 500 nM. Turning to `CC(=O)Nc1cccc(CCN2CCC3(CC2)CN(c2ccccc2)C(=O)C2(CC2)O3)c1` [Example 246, N-[3-(2-{13-oxo-12-phenyl-4-oxa-8,12-diazadispiro[2.1.5.3]tridecan-8-yl}ethyl)phenyl]acetamide], the Ki was below 500 nM.

Regarding `CC1OC2(CCN(CCc3ccccc3)CC2)CN(c2nc3ccccc3s2)C1=O.Cl` (stereo not shown) [Example 204, 4-(benzo[d]thiazol-2-yl)-2-methyl-9-phenethyl-1-oxa-4,9-diazaspiro[5.5]undecan-3-one hydrochloride], the “μ and σ1 dual binding” value was “++”.

Regarding `Nc1nc(CCN2CCC3(CC2)CN(c2ccccc2)C(=O)C2(CC2)O3)cs1` [Example 307, 8-[2-(2-aminothiazol-4-yl)ethyl]-12-phenyl-4-oxa-8,12-diazadispiro[2.1.5.3]tridecan-13-one dihydrochloride], the Ki was below 500 nM. In turn, `COc1ccccc1CCN1CCC2(CC1)CN(c1ccccc1F)C(=O)C(C(C)C)O2` (stereo not shown) [Example 137, 4-(2-fluorophenyl)-2-isopropyl-9-(2-methoxyphenethyl)-1-oxa-4,9-diazaspiro[5.5]undecan-3-one hydrochloride] returned a Ki below 100 nM. For `CC1OC2(CCN(CCc3ccccc3)CC2)CN(Cc2cccnc2)C1=O` (stereo not shown) [Example 159, 2-methyl-9-phenethyl-4-(pyridin-3-ylmethyl)-1-oxa-4,9-diazaspiro[5.5]undecan-3-one hydrochloride], the Ki was below 100 nM. As for `CC(C)CCN1CCC2(CC1)CN(c1ccccc1F)C(=O)C(C)O2.Cl` (stereo not shown) [Example 81, 4-(2-fluorophenyl)-9-isopentyl-2-methyl-1-oxa-4,9-diazaspiro[5.5]undecan-3-one hydrochloride], the “μ and σ1 dual binding” value was “++”.

Compound `CC1OC2(CCN(CCc3cccc(NS(=O)(=O)C(C)C)c3)CC2)CN(c2ccccc2)C1=O` (stereo not shown) [Example 261, N-(3-(2-(2-methyl-3-oxo-4-phenyl-1-oxa-4,9-diazaspiro[5.5]undecan-9-yl)ethyl)phenyl)propane-2-sulfonamide hydrochloride] returned a Ki below 500 nM.

Staying with this experiment, now noted: combined class from Ki-σ1 (human σ1 receptor, A1) and Ki-μ (human μ-opioid receptor, A2) radioligand binding.
As to `CC1OC2(CCN(CCc3ccc(NS(C)(=O)=O)cc3)CC2)CN(c2ccccc2)C1=O` (stereo not shown) [Example 258, N-(4-(2-(2-methyl-3-oxo-4-phenyl-1-oxa-4,9-diazaspiro[5.5]undecan-9-yl)ethyl)phenyl)methanesulfonamide], the “μ and σ1 dual binding” value is “++”.

As to `CC(C)OCCN1CCC2(CC1)CN(Cc1ccc(C(F)(F)F)cn1)C(=O)C(C)O2` (stereo not shown) [Example 125, 9-(2-isopropoxyethyl)-2-methyl-4-((5-(trifluoromethyl)pyridin-2-yl)methyl)-1-oxa-4,9-diazaspiro[5.5]undecan-3-one], the “μ and σ1 dual binding” value is recorded as “++”. Same read-out and setting: then `O=C1COC2(CCN(CCc3ccccc3)CC2)CN1Cc1ccncc1` [Example 165, 9-phenethyl-4-(pyridin-4-ylmethyl)-1-oxa-4,9-diazaspiro[5.5]undecan-3-one], with “++”; and `COCC1OC2(CCN(CCc3ccccc3OC)CC2)CN(c2ccccc2F)C1=O` (stereo not shown) [Example 135, 4-(2-fluorophenyl)-2-(methoxymethyl)-9-(2-methoxyphenethyl)-1-oxa-4,9-diazaspiro[5.5]undecan-3-one], with “++”.

Staying with this experiment, now noted: read-out: μ and σ1 dual binding.
For `CC(C)(C)OC(=O)Nc1nc(CCN2CCC3(CC2)CN(Cc2ccc(C(F)(F)F)cn2)C(=O)CO3)cs1` [Example 106, tert-butyl (4-(2-(3-oxo-4-((5-(trifluoromethyl)pyridin-2-yl)methyl)-1-oxa-4,9-diazaspiro[5.5]undecan-9-yl)ethyl)thiazol-2-yl)carbamate], the Ki was above 500 nM. For `CC1OC2(CCN(CCc3ccccc3)CC2)CN(Cc2ncccc2F)C1=O` (stereo not shown) [Example 173, 4-((3-fluoropyridin-2-yl)methyl)-2-methyl-9-phenethyl-1-oxa-4,9-diazaspiro[5.5]undecan-3-one], the Ki was below 100 nM. On to `CC1OC2(CCN(CCc3ccc([N+](=O)[O-])cn3)CC2)CN(c2ccccc2F)C1=O` (stereo not shown) [Example 24, 4-(2-fluorophenyl)-2-methyl-9-(2-(5-nitropyridin-2-yl)ethyl)-1-oxa-4,9-diazaspiro[5.5]undecan-3-one], for which the Ki is above 500 nM. On to `CC1CN(Cc2ccccc2)CC2(CCN(CCc3ccccc3)CC2)O1` (stereo not shown) [Example 335, 4-benzyl-2-methyl-9-phenethyl-1-oxa-4,9-diazaspiro[5.5]undecane dihydrochloride], for which the Ki was below 100 nM. As for `CC1OC2(CCN(CCn3ccc(N)n3)CC2)CN(c2ccccc2)C1=O` (stereo not shown) [Example 237, 9-(2-(3-amino-1H-pyrazol-1-yl)ethyl)-2-methyl-4-phenyl-1-oxa-4,9-diazaspiro[5.5]undecan-3-one hydrochloride], the Ki is above 500 nM. Take `CC1OC2(CCN(CC(=O)N3CCOCC3)CC2)CN(c2ccccc2)C1=O` (stereo not shown) [Example 78, 2-methyl-9-(2-morpholino-2-oxoethyl)-4-phenyl-1-oxa-4,9-diazaspiro[5.5]undecan-3-one hydrochloride]: the Ki is above 500 nM. Consider `C=C1OC2(CCN(CCc3ccccc3)CC2)CN(c2ccccc2)C1=O` [Example 21, 2-methylene-9-phenethyl-4-phenyl-1-oxa-4,9-diazaspiro[5.5]undecan-3-one], for which the Ki is above 500 nM.

Turning to `CC1OC2(CCN(CCn3ccc([N+](=O)[O-])n3)CC2)CN(c2ccccc2)C1=O` (stereo not shown) [Example 110, 2-methyl-9-(2-(3-nitro-1H-pyrazol-1-yl)ethyl)-4-phenyl-1-oxa-4,9-diazaspiro[5.5]undecan-3-one], the Ki was above 500 nM. For the compound `CC1OC2(CCN(CCc3ccccc3)CC2)CN(Cc2ccccc2F)C1=O` (stereo not shown) [Example 154, 4-(2-fluorobenzyl)-2-methyl-9-phenethyl-1-oxa-4,9-diazaspiro[5.5]undecan-3-one hydrochloride], the Ki was below 100 nM. Turning to `C[C@H]1OC2(CCN(CCc3ccccc3F)CC2)CN(c2ncccc2C(F)(F)F)C1=O` [Example 222a, (R)-9-(2-fluorophenethyl)-2-methyl-4-(3-(trifluoromethyl)pyridin-2-yl)-1-oxa-4,9-diazaspiro[5.5]undecan-3-one], the Ki is below 500 nM.

Turning to `O=C1N(c2cnccc2C(F)(F)F)CC2(CCN(CCc3cc(F)ccc3F)CC2)OC12CC2` [Example 342, 8-(2,5-difluorophenethyl)-12-(4-(trifluoromethyl)pyridin-3-yl)-4-oxa-8,12-diazadispiro[2.1.5.3]tridecan-13-one], the Ki was below 500 nM. Take `Oc1ccccc1CCN1CCC2(CC1)CN(Cc1ccccn1)CCO2` [Example 329, 2-(2-(4-(pyridin-2-ylmethyl)-1-oxa-4,9-diazaspiro[5.5]undecan-9-yl)ethyl)phenol hydrochloride]: the Ki was below 100 nM.
